# Source: patent US5968940A, “Retinoids and methods of use of same” (priority 1996, dated 1999)
# Tests used:
# [1] = tested on: Human promyelocytic leukemia HL-60 cells; experiment: Cell differentiation of HL-60 cells, nitroblue tetrazolium (NBT) reduction / morphology; format: cell-based
# Description: Human promyelocytic leukemia HL-60 cells were cultured in RPMI-1640 medium supplemented by 10% heat-inactivated calf serum and 100 U/ml of penicillin plus 100 μg/ml of streptomycin. The flasks containing cells and medium were incubated in an incubator with 5% CO2 at 37° C. Log phase cells were seeded into the medium at a concentration of 1.2×10^5to 1.4×10^5 cells per ml and cultured in flasks containing 5 ml of medium. Each group consisted of three flasks. Different concentrations of coumarin-retinoids were added. At intervals following the addition of coumarin-retinoids to the cultures, a small portion of cells was removed and live cells were counted under a light microscope using a dye-exclusionmethod with trypan blue. Cell differentiation was judged in terms of morphology and nitroblue tetrazolium (NBT) reduction.
# For a determination of NBT reducing activity, a portion of the coumarin-retinoid-treated cells was removed at intervals following treatment and centrifuged. After centrifugation, 0.5 ml of 0.1% NBT (containing 100 ng TPA) was added to each tube. The contents of the test tubes were then incubated for 1 hour at 37° C. Cell smears were prepared from the cell sediment and stained using the Wright-Giemsa technique. For each smear prepared, 200 cells were isolated for examination under a light microscope with an oil immersion lens. Cells stained with blue-black granules were considered NBT-positive cells. The 50% differentiation or effective concentration (ED50 or EC50) is shown in terms of molar (M) concentration of the […] tested.
# For a determination of cell morphology, a cell smear was prepared at intervals following treatment of cells for each coumarin-retinoid concentration group using the Wright-Giemsa stain technique. Stained cells were counted and classified under a light microscope with an oil immersion lens. After treatment with coumarin-retinoids, the morphological development of HL-60 cells proceeded toward mature granulocytes. This development was manifested by decreased cell volume; a lower nuclei to cytoplasm ratio; smaller or missing nuclei; concentration of chromatin; and the appearance of a certain proportion of intermediate and late granuloblasts (progranulocytes), elongated rod granulocytes, and granulocytes with branched nuclei.
# The protocols of Examples 14 and 21 were used, for the NBT and MTT assays, respectively.
# [2] = tested on: Ornithine decarboxylase (ODC); experiment: Croton oil induced ornithine decarboxylase (ODC) activity in mouse epidermis; format: in vivo; conditions: ICR mice, single dose pretreatment; FIG. 1, n=3
# Description: ICR mice (6-8 weeks old) were pretreated with a single dose of coumarin retinoid. On the third day, the animals received a topical application of 0.2 ml of 1% croton oil in acetone. All animals were sacrificed five hours after the croton oil treatment and the epidermis was separated by a brief heat treatment at 52° C. for 30 seconds and minced in a blender. The cell suspension and broth were separated by a centrifugation at 30,000×g for 30 seconds and the supernatant was obtained. Ornithine decarboxylase (ODC) enzyme activity was determined by measuring the release of CO2 from L-(^14 C)-ornithine and expressed as nmole CO2 /30 min/mg protein and the results for coumarin retinoid I-10 and I-6 are shown in FIG. 1. […] ODC activity is a critical parameter for monitoring cancer chemoprevention or promotion.
# [3] = tested on: lipid peroxidation of rat liver microsome; experiment: Inhibition of Fe+2/Cys induced lipid peroxidation of rat liver microsome; format: biochemical
# Description: Lipid peroxidation was induced by adding 1 mM FeSO4 and 10 mM cysteine to the microsome fraction of rat liver with the incubations being carried out at 37° C. for 30 minutes in a reaction mixture containing 10 mM phosphate buffer (pH 7.4). The reaction was terminated by the addition of 0.3 ml of 20% trichloroacetic acid solution. Thiobarbituric acid was then added and the mixture was boiled for 10 minutes. After cooling the test tubes under running tap water, the optical density at 532 nm was measured. Lipid peroxidation in both the treated groups and the control group was expressed in nmol MDA/mg protein. The percentage inhibition indicates the anti-oxidation properties of the coumarin retinoids tested.
# [4] = tested on: croton oil induced ear edema in mice; experiment: Croton oil induced ear edema in mice; format: in vivo
# Description: ICR mice (body weight 18-20 grams) were used. Each group consisted of 10 mice. After three dosage treatments, the left ears of the mice in both the treated group and the control group were painted with 2% croton oil in 0.05 ml ether. All the mice were sacrificed six hours later and the ears of both sides were punched by a corneal knife and weighed, the difference of the ear weight of both sides for each mouse was calculated. The t- Student test was used for statistical calculation. Croton oil induced ear edema is a classical assay for evaluation of cancer promotion.
# fetus absorption in mice = experiment: Effect on fetus absorption in mice; format: in vivo
# Description: (§1) Female mice were examined by vaginal smear the morning after being caged with male mice, and if sperm or a vaginal plug was discovered, then the mice were determined to be pregnant. The retinoids were administered at the dosage indicated starting on the seventh day of pregnancy and continued once a day for the next ten days. On the 20th day after the female mice were determined to be pregnant, they were sacrificed by cervical dislocation. Both sides of the uterus were checked and the number of living embryos, dead embryos, and absorbed embryos were counted. The living embryos were further examined for bone abnormalities.
# [5] = tested on: bone abnormalities in mouse fetus; experiment: Bone abnormalities in mouse fetus; format: in vivo
# Description: as §1
# After the embryos became transparent, they were dissected and their skeletons were checked by observation under a microscope.
# [6] = tested on: human acute myeloid leukemia (AML), neuroblastoma, teratocarcinoma, melanoma, and rat rhabdomyosarcoma cells; conditions: Smith et al. 1992; cited from earlier work
# chondrosarcoma = experiment: Growth of chondrosarcoma in rats; format: in vivo; conditions: for Body Weight final: in g (unit assumed)
# Excerpt: Transplantable chondrosarcomas obtained from Dr. Trown, Hoffman--La Roche Institute of Molecular Biology and Wistar rats obtained from the Breeding Center of Experimental Animals, Chinese Academy of Medical Sciences were used. According to the routine transplantation protocol as described in Cancer Treatment Reports 60(11):1647-1653 (1976) where the small pieces of chondrosarcoma tumor were implanted subcutaneously in the right inguinal region of rats using a trocar. Tumor-bearing rats were randomized to a control group and a treated group. Each group consisted of ten rats. […] Sixty days after transplantation, the rats were sacrificed and the tumor weight was determined. The inhibition rate was calculated according to the following formula: [formula]
# [7] = tested on: Salmonella typhimurium strain TA100; experiment: Anti-mutagenicity (Ames), TA100; format: cell-based; conditions: MMS mutagen alone, 0.5 μl/plate
# Description: (§2) An antimutagenicity assay was conducted according to the method developed by Ames et al. using Salmonella typhimurium strains TA 102 and TA 100 and mammalian microsomal enzymes. Beta-naphthoflavone and phenobarbital-induced rat liver supernatant (9000×g S-9 fraction) was used as the enzyme source for metabolic activation. The night before the experiment, certified bacterial solution (assessed for its biological characteristics and donated by Professor Ames) was inoculated into petri dishes. The petri dishes were then incubated for 15 hours at 37° C. From each petri dish, 0.1 ml of the bacterial solution was removed and added to sterile test tubes. To these test tubes, 0.1 ml of different concentrations of coumarin retinoids and 0.5 ml of either S-9 mixed solution or phosphate buffer were then added. The final solution for each test tube was incubated in a water bath at 37° C. for 20 minutes before adding 2 ml of agar solution. After thorough mixing, the solution was transferred into petri dishes and incubated once again at 37° C. for 48 hours. After incubation, the number of colonies in each petri dish were counted. The revertant numbers of the bacteria in control and treated groups were compared and the inhibition rate was calculated.
# [8] = tested on: Salmonella typhimurium strain TA102; experiment: Anti-mutagenicity (Ames), TA102; format: cell-based; conditions: MMS mutagen alone, 0.5 μl/plate
# Description: as §2
# [9] = 10 mg/kg once a day from day 7 of pregnancy
smiles,measurement,setting,value
CC(=O)c1cc2cc(Cl)c(OC(=O)/C=C(C)/C=C/C=C(C)/C=C/C3=C(C)CCCC3(C)C)cc2oc1=O [Compound I-6],NBT (+) %,[1]; 10^-4 M,96%
same,NBT (+) %,[1]; 10^-5 M,81%
same,NBT (+) %,[1]; 10^-6 M,78%
same,NBT (+) %,[1]; 10^-7 M,31%
same,NBT (+) %,[1]; 10^-8 M,2%
same,inhibition of croton oil induced ODC activity,[2],significantly inhibited the ODC activity induced by croton oil
same,Inhibition (%) of lipid peroxidation,[3]; 20 μM,9.6%
same,Inhibition (%) of lipid peroxidation,[3]; 200 μM,13.5%
same,Lipid Peroxidation,"[3]; 200 μM, n = 3, p < 0.05",2.03 ± 0.16 μM MDA/mg protein
same,Ear Edema (x ± SD),[4]; 50 mg/kg,13.4 ± 3.1 mg
same,IR (%),[4]; 50 mg/kg,19%
same,Ear Edema (x ± SD),[4]; 100 mg/kg,15.1 ± 2.7 mg
same,IR (%),[4]; 100 mg/kg,9%
"CC1=C(/C=C/C(C)=C/C=C/C(C)=C/C(=O)O)C(C)(C)CCC1 [All Trans RA, all-trans-retinoic acid, reference compound]",Fetus Absorption (%),fetus absorption in mice; [9],73.7%
same,"Fetus Absorption, absorbed number/implanted number",fetus absorption in mice; [9],73/99
same,Absorbed Number,"fetus absorption in mice; 15 mg/kg, implanted number 186, 15 pregnant mice",111
same,"Delayed Calcification, Occipital delay/fetus number",[5]; 101 mg/kg (so in the source),6/16
same,"Delayed Calcification, Sternum delay/fetus number",[5]; 101 mg/kg (so in the source),16/16
same,induction of cell differentiation,[6],induces cell differentiation
CC(=O)c1cc2c(OC(=O)/C=C(C)/C=C/C=C(C)/C=C/C3=C(C)CCCC3(C)C)cc(OC(=O)/C=C(C)/C=C/C=C(C)/C=C/C3=C(C)CCCC3(C)C)cc2oc1=O [Compound I-10],NBT (+) %,[1]; 6.4 × 10^-6 M,99%
same,NBT (+) %,[1]; 6.4 × 10^-7 M,96%
same,NBT (+) %,[1]; 6.4 × 10^-8 M,82%
same,NBT (+) %,[1]; 6.4 × 10^-9 M,33%
same,NBT (+) %,[1]; 6.4 × 10^-10 M,10%
same,"Fetus Absorption, absorbed number/implanted number",fetus absorption in mice; 20 mg/kg once a day from day 7 of pregnancy,0/104
same,"Fetus Absorption, absorbed number/implanted number",fetus absorption in mice; 40 mg/kg once a day from day 7 of pregnancy,0/107
same,inhibition of croton oil induced ODC activity,[2],significantly inhibited the ODC activity induced by croton oil
same,Ear Edema (x ± SD),[4]; 50 mg/kg,14.2 ± 2.3 mg
same,IR (%),[4]; 50 mg/kg,14%
same,Ear Edema (x ± SD),[4]; 100 mg/kg,11.3 ± 3.0 mg
same,IR (%),[4]; 100 mg/kg,32%
same,"Delayed Calcification, Occipital delay/fetus number",[5]; 20 mg/kg,22/66
same,"Delayed Calcification, Sternum delay/fetus number",[5]; 20 mg/kg,14/66
same,"Delayed Calcification, Occipital delay/fetus number",[5]; 40 mg/kg,15/81
same,"Delayed Calcification, Sternum delay/fetus number",[5]; 40 mg/kg,21/81
same,Inhibition rate (%),chondrosarcoma; 5 mg/kg P.O. (Table 13),14.8%
same,Tumor Weight,chondrosarcoma; 5 mg/kg P.O. (Table 13),12.1 grams
same,Animals final,"chondrosarcoma; 5 mg/kg P.O., initial 10 (Table 13)",10
same,Body Weight final,"chondrosarcoma; 5 mg/kg P.O., initial 97.8 (Table 13)",258.4
same,Tumor Weight,chondrosarcoma; 10 mg/kg P.O.,12.8 grams
same,Animals final,"chondrosarcoma; 10 mg/kg P.O., initial 10",9
same,Body Weight final,"chondrosarcoma; 10 mg/kg P.O., initial 98.2",248.0
same,Tumor Weight,chondrosarcoma; 20 mg/kg P.O.,8.2 grams
same,Animals final,"chondrosarcoma; 20 mg/kg P.O., initial 10",9
same,Body Weight final,"chondrosarcoma; 20 mg/kg P.O., initial 97.4",253.1
COS(C)(=O)=O [MMS],"his+ -revertants/per plate, TA100",[7],1083.7 ± 99.3 revertants/per plate
same,"his+ -revertants/per plate, TA102",[8],1760 ± 288.4 revertants/per plate
CC(=O)c1cc2ccc(OC(=O)/C=C(C)/C=C/C=C(C)/C=C/C3=C(C)CCCC3(C)C)c(C(=O)O)c2oc1=O [Compound I-5],NBT (+) %,[1]; 10^-4 M,69%
same,NBT (+) %,[1]; 10^-5 M,89%
same,NBT (+) %,[1]; 10^-7 M,41%
same,Inhibition (%) of lipid peroxidation,[3]; 1 μM,7.3%
same,Inhibition (%) of lipid peroxidation,[3]; 10 μM,16.6%
same,Lipid Peroxidation,"[3]; 10 μM, n = 3, p < 0.05",1.95 ± 0.18 μM MDA/mg protein
same,Inhibition (%) of lipid peroxidation,[3]; 100 μM,36.6%
same,Lipid Peroxidation,"[3]; 100 μM, n = 3, p < 0.01",1.43 ± 0.16 μM MDA/mg protein
